Measurements as given in patent publication US8298793B2, “Methods for isolating proteons from plasma samples” (Auburn University, priority 2002, dated 2012).
Several values for one entry are separate records, joined by “and”; a condition that tells them apart may be missing. Identical values can stand only once. Entries after “also recorded” stand apart in the source; their conditions may differ. Counter-ions that a name gives are not always drawn.

Assays:
proteons = experiment: Proteon formation in plasma, counted by dark-field microscopy; assay type: biochemical; conditions: for number of proteons visible by dark-field microscopy: added to proteons produced without chaotropic compounds, then 120° C. and 20 psi; for number of proteons with rising concentration of chaotropic compound: plasma with 0, 0.01, 0.1, 1, 4 and 8 M, 120° C., 20 psi, dark-field microscopy
[1] = system: H9c2[2-1] (rat heart myocardium) cells; experiment: MTT cell proliferation assay on myocardium cells; assay type: cell-based; conditions: Staurosporine, 1% FCS, concentration not given
Excerpt: (§1) The impact of PNCs upon viability of various cultured cells was investigated using the tetrazolium salt (MTT) cell proliferation assay. RG2 ([…] brain glioma), F98 (rat brain glioma), Hs683 (human brain glioma), CTX TNA2 (rat transfected astrocyte), H9c2[2-1] (rat heart myocardium), 27FR (rat skin fibroblast), and SVGp12 (human brain astroglia) cells were obtained from American Type Culture Collection (ATCC) and maintained as recommended by ATCC. MTT cell proliferation assays are commercially available. See, e.g., MTT cell proliferation assay from ATCC. Cells were plated in Dulbecco's modified Eagle's growth medium ([…], Sigma Chemical Inc., St. […] PNCs were isolated from blood obtained from shark, dog, and rabbit using the ultrafiltration protocol described in Example 5. PNCs were autoclaved at 120° C. and 20 psi for 15 minutes before adding to the cell cultures. […] MTT was reduced in metabolically active cells to form purple formazan crystals, which were dissolved by DMSO and quantified by a BIO-RADTM plate reader. For each cell type, a linear relationship between cell number and absorbance is established, enabling accurate, straightforward quantification of changes in proliferation.

[2] = system: CTX TNA2 (rat transfected astrocyte) cells; experiment: MTT cell proliferation assay on CTX astrocytes; assay type: cell-based; conditions: CTX astro, Staurosporine, 1% FCS
Excerpt: as §1

[3] = system: F98 (rat brain glioma) cells; experiment: MTT cell proliferation assay on F98 glioma cells; assay type: cell-based; conditions: Staurosporine, 1% FCS, concentration not printed; for Absorbance at 550 nm (MTT), single well: listed as Staurosporine
Excerpt: as §1

[4] = system: 27FR (rat skin fibroblast) cells; experiment: MTT cell proliferation assay on fibroblasts; assay type: cell-based; conditions: Fibro, Staurosporine, 1% FCS
Excerpt: as §1

[5] = system: SVGp12 (human brain astroglia) cells; experiment: MTT cell proliferation assay on SVG astrocytes; assay type: cell-based; conditions: SVG astro, Staurosporine, 1% FCS, concentration not printed; for Absorbance at 550 nm (MTT), single well: listed as Staurosporine
Excerpt: as §1

RG2 cells = experiment: MTT cell proliferation assay on RG2 glioma cells; assay type: cell-based, mouse
Protocol: The impact of PNCs upon viability of various cultured cells was investigated using the tetrazolium salt (MTT) cell proliferation assay. RG2 (mouse brain glioma), F98 (rat brain glioma), Hs683 (human brain glioma), CTX TNA2 (rat transfected astrocyte), H9c2[2-1] (rat heart myocardium), 27FR (rat skin fibroblast), and SVGp12 (human brain astroglia) cells were obtained from American Type Culture Collection (ATCC) and maintained as recommended by ATCC. […] Cells were plated in Dulbecco's modified Eagle's growth medium ([MUT], Sigma Chemical Inc., St. […] PNCs were autoclaved at 120° C. and 20 psi for 15 minutes before adding to the cell cultures. […] MTT was reduced in metabolically active cells to form purple formazan crystals, which were dissolved by DMSO and quantified by a BIO-RADTM plate reader. For each cell type, a linear relationship between cell number and absorbance is established, enabling accurate, straightforward quantification of changes in proliferation. […] Catalog No. S5921), 100 μg, FW 466.5. Dissolve 100 μg staurospine into 214.3 μl • DMSO to equal a 1 mM stock solution. Store at -200° C. […] TX put on late afternoon. • Add staurospine, autoclaved shark PNC, and either 10%, 1%, or 0% FCS treatments to cells and incubate overnight.

[6] = myocard, Table 10 second myocard column
[7] = Table 10, concentration not given
[8] = RG2, 10% FCS, staurosporine 1 μM, Table 6
[9] = RG2, Staurosporine 100 urn, 1% FCS, Table 10
[10] = RG2, Staurosporine, 1% FCS, Table 10, concentration not given

O=C(O)CN(CCN(CC(=O)O)CC(=O)O)CC(=O)O [EDTA, ethylene diamine tetra acetate]
effect on formation of proteons from plasma (proteons; 10 mM EDTA added): prevented the formation of proteon; also recorded: production was quenched

N=C(N)N [guanidine hydrochloride]
number of proteons visible by dark-field microscopy (proteons): great reduction
number of proteons with rising concentration of chaotropic compound (proteons): decreased

CN[C@@H]1C[C@H]2O[C@@](C)([C@@H]1OC)n1c3ccccc3c3c4c(c5c6ccccc6n2c5c31)C(=O)NC4 [staurosporine]
Ab. Av. (Absorbance at 550 nm, MTT) ([1]; Myocard, Table 10 first Myocard column): 0.283
Ab. Av. (Absorbance at 550 nm, MTT) [1, 6]: 0.16
Absorbance at 550 nm (MTT), single well [1, 6]: 0.176
Ab. Av. (Absorbance at 550 nm, MTT) [2, 7]: 0.1445
Absorbance at 550 nm (MTT), single well [2, 7]: 0.122 and 0.118 and 0.126
Ab. Av. (Absorbance at 550 nm, MTT) ([2]; Table 10 first CTX column, concentration not given): 0.3782
Ab. Av. (Absorbance at 550 nm, MTT) ([3]; Table 10 first F98 column): 0.1333
Absorbance at 550 nm (MTT), single well ([3]; Table 10 first F98 column): 0.136 and 0.138 and 0.12 and 0.139
Ab. Av. (Absorbance at 550 nm, MTT) ([3]; Table 10 second F98 column): 0.1085
Absorbance at 550 nm (MTT), single well ([3]; Table 10 second F98 column): 0.108 and 0.109
Ab. Av. (Absorbance at 550 nm, MTT) [4, 7]: 0.2757
Absorbance at 550 nm (MTT), single well [4, 7]: 0.296 and 0.257 and 0.275
Ab. Av. (Absorbance at 550 nm, MTT) ([4]; Table 10 second Fibro column, concentration not given): 0.169
Ab. Av. (Absorbance at 550 nm, MTT) ([5]; Table 10 first SVG column): 0.128
Absorbance at 550 nm (MTT), single well ([5]; Table 10 first SVG column): 0.128 and 0.12 and 0.136
Ab. Av. (Absorbance at 550 nm, MTT) ([5]; Table 10 second SVG column): 0.067
Absorbance at 550 nm (MTT), single well ([5]; Table 10 second SVG column): 0.067 and 0.066 and 0.068
Ab. Av. (Absorbance at 550 nm, MTT) (RG2 cells; [8]): 0.4053
Absorbance at 550 nm (MTT), single well (RG2 cells; [8]): 0.406 and 0.411 and 0.399
Ab. Av. (Absorbance at 550 nm, MTT) (RG2 cells; [9]): 0.2893
Absorbance at 550 nm (MTT), single well (RG2 cells; [9]): 0.272 and 0.279
Ab. Av. (Absorbance at 550 nm, MTT) (RG2 cells; [10]): 0.1268
Absorbance at 550 nm (MTT), single well (RG2 cells; [10]): 0.149 and 0.12 and 0.119
Ab Av. (Absorbance at 550 nm, MTT) (RG2 cells; RG2, stauro 1% FCS (1 μM per protocol b158), Table 7): 0.09867

NC(N)=O [urea]
number of proteons visible by dark-field microscopy (proteons): great reduction
number of proteons with rising concentration of chaotropic compound (proteons): decreased
